In PMC3539664, “Convergent synthesis and evaluation of ^18F-labeled azulenic COX2 probes for cancer imaging” (Frontiers in Oncology, 2013):
Entries after “also recorded” stand apart in the source; their conditions may differ.

Key:
C57MG tumors = assay: In vivo microPET/CT imaging of COX2 in tumor-bearing mouse model; parameters: species or system mice
Description: The experimental protocol for animal imaging was approved by the Vanderbilt Medical Center Institutional Animal Care and Use Committee. Nude mice 6–8 weeks of age (n = 8, from Jackson Laboratory, Bar Harbor, ME, USA) were implanted subcutaneously under anesthesia (isoflurane mixed […]) with 1.0 × 10^6 C57MG cells in the mammary fat pad. The progress of tumor growth was monitored via every-other-day measurement of tumor size and animal weight. When the tumors reached approximately 4 mm in diameter, in vivo PET imaging was performed.
Positron emission tomography imaging was performed using the microPET Focus 220 (Siemens Pre-clinical, Knoxville, TN, USA) in a static acquisition mode for 30 min at 60, 120, and 150 min after injection of ^18F-COX2 probe 13 (150–200 μCi, 100–130 μL) into awake, non-fasted mice (n = 8) via the tail vein. To obtain whole-body scans, mice were placed in a supine position. The data were acquired in a 3-D mode with an axial span of approximately 8 cm. During the scanning, the animals were anesthetized using isoflurane and the temperature inside the scanner was maintained at 30°C using a pad connected to a circulating warm water bath. After PET imaging, a CT image was acquired using the microCAT II (Siemens Pre-clinical, Knoxville, TN, USA) using the same animal holder with the subjects maintained under anesthesia throughout, and then the mice were immediately euthanized upon completion of the CT scan. PET images were reconstructed using the iterative MAP reconstruction algorithm with 18 iterations and a beta smoothing value of 0.001 into 128 × 128 × 95 slices with a voxel size of 0.475 mm × 0.475 mm × 0.796 mm. The PET and CT images were co-registered using the imaging tool AMIDE ([Loening and Gambhir, 2003]).

[1] = Biodistribution by gamma counting of tissues after imaging; format: in vivo; details: non-fasted tumor-bearing mice (n = 3), 150 min post injection (Figure 5)
Description: After the imaging session, the mice were euthanized and hearts, muscles, blood, livers, spleens, kidneys, stomachs, brains, intestines, tumors, and lungs were retrieved. The tissues were weighed and assessed for ^18F radioactivity using a gamma counter (CRC-15W, Capintec, Ramsey, NJ, USA).

Question: Which results are given for `Cc1csc(Cc2c3cccccc-3c(C(=O)c3ccc([18F])cc3)c2C)n1` [compound 13]?
Answer: Hepatic uptake of the probe (PET) (C57MG tumors; non-fasted C57MG tumor-bearing mice, i.v., PET imaging): predominant hepatic uptake; Bone signal / in vivo defluorination (PET) (C57MG tumors; non-fasted C57MG tumor-bearing mice, i.v., up to 2.5 h post injection): negligible signal in the bone; also recorded: no defluorination of the probe in vivo; Tumor accumulation and retention of the probe (PET, PET/CT) (C57MG tumors; non-fasted nude mice with C57MG mammary fat pad tumors, i.v. tail vein, static whole-body scan 150 min after administration, vs background p < 0.05): significant accumulation in the tumor; Biodistribution: tissue uptake (% injection dose/g tissue) [1]: the probe accumulated in the tumor; also recorded: highest uptake was detected in the liver, followed by the intestine
